In patent publication US9586943B2, “Bilaterally-substituted tricyclic compounds for the treatment of human immunodeficiency virus type-1 (HIV-1) infection and other diseases” (CENTRO DE INVESTIGACIÓN PRINCIPE FELIPE, priority 2013, dated 2017):
Where two headings read alike, the source gives them in different places.

Columns and labels:
[1] = target: RREc hairpin; assay: SPR binding specificity relative to control RREc hairpin; parameters: species or system HIV-1
Experimental: (§1) The interaction of these biphenyl and terphenyl compounds with the RRE RNA hairpin (SEQ. ID. No 1) was analysed using surface plasmon resonance (SPR) experiments(19). In addition to the RRE, two control RREc (SEQ. ID. No 2) and TARc (SEQ. ID. No 3) hairpins were also immobilised on the chips. In the RREc hairpin the internal loop forming the Rev high-affinity binding site is replaced with a G:G opposition, whereas in the TARc hairpin this loop is substituted with the HIV-1 Tat-binding UCU bulge(20). In this way, applicants could simultaneously assess the interaction of each ligand with RRE, RREc and TARc, obtaining important information about binding selectivity. In addition, the SPR methodology allows deduction of binding stoichiometries, which are likewise related to the specificity of the interaction between a ligand and a given RNA species. These are key considerations in the nucleic acid recognition field(4, 5, 14).
(§2) The Surface Plasmon Resonance (SPR) experiments were carried out at 25° C. with a Biacore T100 optical biosensor system, 4-channel streptavidin-derivatized Series S SA chips, and either 10 mM MES (pH 6.25), 150 mM NaCl, 1 mM EDTA and 0.005% P20 or 10 mM HEPES pH 7.4, 150 mM NaCl, 3 mM EDTA and 0.005% P20 aqueous solutions as mobile phases. After immobilizing approximately 300 response units (RU) of the RRE, RREc and TARc RNA hairpins on the chips, the compounds were injected during 10-minute periods at a flow rate of 20 μL/min and at concentrations generally ranging from 0.01 μM to 100.0 μM, and then allowed to dissociate for 10 more minutes. The RNA surfaces were regenerated with solutions containing 0.5 to 1 M NaCl and 10 to 100 mM NaOH, depending on the ligand.
(§3) RNA-ligand SPR equilibrium dissociation constants (Kd) were determined by fitting the sensorgrams to one-site or two-site equations:
(§4) [formula] [formula] where RU is the response in the steady-state region of the sensorgrams, C is the concentration of free compound in equilibrium with the complex, RUmax is the maximum response and RI is an offset term accounting for the bulk refractive index contribution of the sample. In these models, Kd, RUmax and RI are adjustable parameters, and the stoichiometry of each binding site was determined by comparing the fitted RUmax values with the predicted ones, calculated from the molecular weights of RNA and compound and the amount of RNA in the flow cell(32). The two-site equation was only utilized if it provided a clear curve-fitting improvement over the one-site model. The specificity of the RRE interaction was quantified by calculating the Kd(RREc)/Kd(RRE) and Kd(RRE)/Kd(TARc) ratios. All SPR experiments were double-referenced(33).

[2] = target: RRE RNA hairpin (internal loop IIB); assay: SPR analysis of interaction with RRE RNA hairpin; type: binding, HIV-1
[3] = Cellular viability (CellTiter Glo); type: cell-based; details: human, MT-2 cells; 48 h, CellTiter Glo; read-out: CC50 (celular viability)
[4] = system: HIV-1 LTR promoter; type: cell-based
[5] = system: HIV-1 (NL4.3-Ren); assay: microbe, parasite or virus in culture; type: cell-based; details: for EC50: read-out: EC50 (NL4.3-Ren)
[6] = target: TARc hairpin; assay: SPR binding specificity relative to control TARc hairpin; parameters: species or system HIV-1
Experimental: as §1, §2, §3
as §4, with “The specificity of the RRE interaction was quantified by calculating the Kd(RREc)/Kd(RRE) and Kd(RRE)/Kd(TARc) ratios.” left out

[7] = system: Escherichia coli (ATCC 53868); assay: Disk diffusion assay (Kirby-Bauer), E. coli; type: cell-based; details: disk potency 20 μg, 8 mm discs, 16-18 hours at 37° C.
[8] = target: RRE-Rev34-50 interaction (RRE hairpin and frevp); assay: Fluorescence polarization displacement assay of the RRE-Rev34-50 interaction; type: binding, HIV-1
[9] = system: Staphilococcus aureus (ATCC 35556); assay: Disk diffusion assay (Kirby-Bauer), S. aureus; type: cell-based; details: disk potency 20 μg, 8 mm discs, 16-18 hours at 37° C.
[10] = system: full-length competent HIV-1 clone; assay: microbe, parasite or virus in culture; type: cell-based; details: Human immunodeficiency virus 1, MT2, 48 h, read-out: EC50 post-integration
[11] = system: MT-2 cells; assay: Cellular viability (CellTiter Glo); type: cell-based
[12] = system: RRE-Rev; assay: microbe, parasite or virus in culture; type: cell-based, HIV-1
[13] = system: RRE hairpin; assay: Two-dimensional NMR (TOCSY) titration of the RRE hairpin; type: binding, HIV-1; details: D2O, pH 6.0
[14] = Human immunodeficiency virus 1, 48 h
[15] = read-out: IC50 (RRE-Rev 50% inhibitory concentration), fluorescence polarization, 25° C., 60 nM RRE and 10 nM frevp
[16] = fluorescence anisotropy, read-out: IC50 (RRE-Rev34-50 inhibition)
[17] = 25° C., pH 7.4, high affinity site when two-site model, footnote d compounds: ligand range 0.1-25 μM, read-out: Kd(RRE)

In the case of `COc1cc(CCN)c(-c2ccc(-c3cc(CCN)c(O)c(CCN)c3)c(OC)c2)c(CCN)c1` [IIS-358, 2″,3,5,6″-Tetrakis(2-aminoethyl)-2′,4″-dimethoxy-(1,1′:4′,1″-terphenyl)-4-ol chlorhydrate], the “Kd(RREc)/Kd(RRE)” value ([1]; 25° C., pH 6.3) is reported as 1.9, the Kd ([2]; 25° C., pH 6.3, high affinity site when two-site model, JB-399 and IIS-530: ligand range 0.1-25 μM, read-out: Kd(RRE)) is reported as 13 ± 9 µM and the CC50 at 48 h [3] is reported as > 100 µM. The “inhibition of HIV-1 LTR-mediated transcription (in words)” value [4] was “inhibited transcription of the reporter gene”, the EC50 [5, 14] was > 100 µM and the “Kd(TARc)/Kd(RRE)” value ([6]; 25° C., pH 6.3) was 6.0. For the same compound, the “disk susceptibility of E. coli (diameter of the inhibition area)” value [7] was “inactive”, the IC50 [8, 15] was 808 ± 462 µM and the “disk susceptibility of S. aureus (diameter of the inhibition area)” value [9] was “inactive”.
With `COc1cc(CCN)c(-c2cc(C)c(-c3cc(CCN)c(OCc4ccccc4)c(CCN)c3)c(C)c2)c(CCN)c1` [IIS-375, 2,2′,2″,2′″-[4″-(Benzyloxy)-4-methoxy-3′,5′-dimethyl-(1,1′:4′,1″-terphenyl)-2,3″,5″,6-tetrayl]tetraethanamine chlorhydrate] the EC50 [10] was 21.4 µM, the CC50 at 48 h [3] was > 100 µM and the “cellular toxicity (in words)” value [11] was “no cellular toxicity”. For the same compound, the “inhibition of HIV-1 replication (in words)” value [5] was “inhibited HIV-1 replication”, the EC50 [5, 14] was 24.8 µM and the IC50 [8, 15] was 32.2 ± 2.3 µM.
For `COc1cc(CCN)c(-c2cc(C)c(-c3cc(CCN)c(O)c(CCN)c3)c(C)c2)c(CCN)c1` [IIS-420, 2″,3,5,6″-Tetrakis(2-aminoethyl)-4″-methoxy-2′,6′-dimethyl-(1,1′:4′,1″-terphenyl)-4-ol chlorhydrate], the EC50 [10] was 5 µM, the CC50 at 48 h [3] was > 100 µM and the “cellular toxicity (in words)” value [11] was “no cellular toxicity”. The “inhibition of HIV-1 LTR-mediated transcription (in words)” value [4] was “inhibited transcription of the reporter gene”, the IC50 ([12]; Human immunodeficiency virus 1, read-out: IC50 (RRE-Rev), pCMV-Rev 20 ng, pDM628 500 ng/well) was 10.4 ± 2.4 µM and the IC50 ([12]; Human immunodeficiency virus 1, read-out: IC50 (RRE-Rev), pCMV-Rev 200 ng, pDM628 500 ng/well) was 21.4 ± 6.3 µM. For the same compound, the IC50 ([12]; Human immunodeficiency virus 1, read-out: IC50 (RRE-Rev), pCMV-Rev 500 ng, pDM628 500 ng/well) was 50 to 100 µM, the IC50 ([12]; Human immunodeficiency virus 1, read-out: IC50 (Rev-mediated transport of RRE-containing RNA), depends on concentration of Rev-encoding plasmid) was 10.4 to 21.4 µM and the “RRE interaction by NMR chemical shift perturbation (in words)” value [13] was “greatest RNA chemical shift variations”. The “inhibition of HIV-1 replication (in words)” value [5] was “inhibited HIV-1 replication”, the EC50 [5, 14] was 3.4 µM and the IC50 [8, 16] was 6.8 µM.
For `CCc1cc(-c2c(CCN)cc(OC)cc2CCN)ccc1-c1cc(CCN)c(OCc2ccccc2)c(CCN)c1` [IIS-758, 2,2′,2″,2′″-[4″-(Benzyloxy)-3′-ethyl-4-methoxy-(1,1′:4′,1″-terphenyl)-2,3″,5″,6-tetrayl]tetraethanamine chlorhydrate], the “Kd(RREc)/Kd(RRE)” value ([1]; 25° C., pH 7.4) was 1.3, the EC50 [10] was 17 µM and the Kd [2, 17] was 16.7 ± 1.6 µM. The CC50 at 48 h [3] was > 100 µM, the “cellular toxicity (in words)” value [11] was “no cellular toxicity” and the “inhibition of HIV-1 LTR-mediated transcription (in words)” value [4] was “inhibited transcription of the reporter gene”. The “inhibition of HIV-1 replication (in words)” value [5] was “inhibited HIV-1 replication”, the EC50 [5, 14] was 32.3 µM and the “Kd(TARc)/Kd(RRE)” value ([6]; 25° C., pH 7.4) was 2.0. The IC50 [8, 15] was 78.1 ± 6.5 µM.
For `CCc1cc(-c2c(CCN)cc(OC)cc2CCN)cc(CC)c1-c1cc(CCN)c(OCc2ccccc2)c(CCN)c1` [IIS-771, 2,2′,2″,2′″-(4″-(benzyloxy)-3′,5′-diethyl-4-methoxy-[1,1′:4′,1″-terphenyl]-2,3″,5″,6-tetrayl)tetraethanamine], the “Kd(RREc)/Kd(RRE)” value ([1]; 25° C., pH 7.4) was 1.0, the EC50 [10] was > 100 µM and the Kd [2, 17] was 17.6 ± 1.8 µM. The CC50 at 48 h [3] was > 100 µM, the “cellular toxicity (in words)” value [11] was “no cellular toxicity” and the “inhibition of HIV-1 replication (in words)” value [5] was “inhibited HIV-1 replication”. The EC50 [5, 14] was 42.6 µM, the “Kd(TARc)/Kd(RRE)” value ([6]; 25° C., pH 7.4) was 1.7 and the IC50 [8, 15] was 77.2 ± 15.5 µM.
In the case of `NCCc1cc(-c2cc(CCN)c(O)c(CCN)c2)cc(CCN)c1O` [JB-391, 3,3′,5,5′-tetrakis(2-aminoethyl)-[1,1′-biphenyl]-4,4′-diol], the EC50 [10] is reported as > 100 µM, the CC50 at 48 h [3] is reported as > 100 µM and the “RRE interaction by NMR chemical shift perturbation (in words)” value [13] is reported as “unspecific”. The EC50 [5, 14] was 50 to 100 µM, the “disk susceptibility of E. coli (diameter of the inhibition area)” value [7] was “inactive” and the IC50 [8, 16] was 7.7 µM. For the same compound, the “disk susceptibility of S. aureus (diameter of the inhibition area)” value [9] was “inactive”.
With `NC[C@@H]1O[C@H](O[C@H]2[C@@H](O)[C@H](O[C@@H]3[C@@H](O)[C@H](N)C[C@H](N)[C@H]3O[C@H]3O[C@H](CN)[C@@H](O)[C@H](O)[C@H]3N)O[C@@H]2CO)[C@H](N)[C@@H](O)[C@@H]1O` [Neomycin B, neomycin B, reference compound] the “Kd(RREc)/Kd(RRE)” value [1] was 0.9, the Kd ([2]; higher affinity site, read-out: equilibrium dissociation constant Kd (RRE)) was 2.4 ± 1.1 µM and the CC50 ([11]; 48 h, CellTiter Glo, read-out: CC50 (celular viability)) was > 100 µM. For the same compound, the “RRE interaction by NMR chemical shift perturbation (in words)” value [13] was “unspecific”, the EC50 ([5]; HIV-1 infection assay, 48 h post-infection) was > 100 µM and the “Kd(TARc)/Kd(RRE)” value [6] was 2.3. For the same compound, the “disk susceptibility of E. coli (diameter of the inhibition area)” value [7] was 15.2 ± 2.1, the Ki ([8]; calculated from IC50, assuming one ligand molecule displaces frevp, read-out: Ki inhibition constant) was 2 ± 0.2 µM and the “disk susceptibility of S. aureus (diameter of the inhibition area)” value [9] was 12.8 ± 1.9.
